In the supplement of paper PMC10307832:

Experiments:
Assay in all cases: relative viability (nuclei count vs DMSO), 5 days (fraction); higher = more cells survive
AZD1208 + Luminespib = compound: N[C@@H]1CCCN(c2c(/C=C3\SC(=O)NC3=O)cccc2-c2ccccc2)C1 [AZD1208] + CCNC(=O)c1noc(-c2cc(C(C)C)c(O)cc2O)c1-c1ccc(CN2CCOCC2)cc1 [Luminespib] (partner 0.01 µM)
Method in brief: (§1)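 Lung cancer cell lines in 1536-well plates were dosed by pin tool the day after seeding, either with one drug alone or with a fixed anchor-drug dose plus five library-drug doses (not always all listed) in √10 steps. After 5 days, cells were fixed and their nuclei stained in one step (final 0.05% Triton X-100, 1% formaldehyde, 1 ug/ml Hoechst), then counted on 4× images. Relative viability is the nuclei count in treated wells divided by that in vehicle wells. Values are medians of duplicate plates.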

AZD1208 + Dasatinib = compound: N[C@@H]1CCCN(c2c(/C=C3\SC(=O)NC3=O)cccc2-c2ccccc2)C1 [AZD1208] + Cc1nc(Nc2ncc(C(=O)Nc3c(C)cccc3Cl)s2)cc(N2CCN(CCO)CC2)n1 [Dasatinib] (partner 0.075 µM)
Method in brief: as §1

XMD14-99 + Lapatinib = compound: CN1CCN(CC1)C2=CC(=C(C=C2)NC3=NC(=C(S3)C(=O)C4=C(C=CC=C4Cl)Cl)N)OC [XMD14-99] + CS(=O)(=O)CCNCc1ccc(-c2ccc3ncnc(Nc4ccc(OCc5cccc(F)c5)c(Cl)c4)c3c2)o1 [Lapatinib] (partner 2 µM)
Method in brief: as §1

XMD14-99 + Navitoclax = compound: CN1CCN(CC1)C2=CC(=C(C=C2)NC3=NC(=C(S3)C(=O)C4=C(C=CC=C4Cl)Cl)N)OC [XMD14-99] + CC1(C)CCC(c2ccc(Cl)cc2)=C(CN2CCN(c3ccc(C(=O)NS(=O)(=O)c4ccc(N[C@H](CCN5CCOCC5)CSc5ccccc5)c(S(=O)(=O)C(F)(F)F)c4)cc3)CC2)C1 [Navitoclax] (partner 0.5 µM)
Method in brief: as §1

Cell Line	relative viability (AZD1208 + Luminespib; first compound 0.08 µM)	relative viability (AZD1208 + Luminespib; first compound 0.253 µM)	relative viability (AZD1208 + Luminespib; first compound 0.8 µM)	relative viability (AZD1208 + Luminespib; first compound 2.53 µM)	relative viability (AZD1208 + Luminespib; first compound 8 µM)	relative viability (AZD1208 + Dasatinib; first compound 0.08 µM)	relative viability (AZD1208 + Dasatinib; first compound 0.253 µM)	relative viability (AZD1208 + Dasatinib; first compound 0.8 µM)	relative viability (AZD1208 + Dasatinib; first compound 2.53 µM)	relative viability (AZD1208 + Dasatinib; first compound 8 µM)	relative viability (XMD14-99 + Lapatinib; first compound 0.08 µM)	relative viability (XMD14-99 + Lapatinib; first compound 0.8 µM)	relative viability (XMD14-99 + Lapatinib; first compound 2.53 µM)	relative viability (XMD14-99 + Lapatinib; first compound 8 µM)	relative viability (XMD14-99 + Navitoclax; first compound 0.08 µM)	relative viability (XMD14-99 + Navitoclax; first compound 0.8 µM)	relative viability (XMD14-99 + Navitoclax; first compound 2.53 µM)	relative viability (XMD14-99 + Navitoclax; first compound 8 µM)
COR-L23	0.585	0.749	0.529	0.721	0.508	0.471	0.508	0.479	0.452	0.523	0.906	0.924	0.931	0.517	0.951	0.894	0.746	0.538
NCI-H2126	0.9	0.924	0.848	0.799	0.858	0.554	0.453	0.475	0.436	0.394	0.77	0.756	0.765	0.701	0.844	0.797	0.879	0.793
LC-2-ad	0.943	0.984	0.968	0.962	1.02	0.525	0.464	0.465	0.51	0.459	0.955	0.926	0.908	0.764	0.533	0.386	0.273	0.295
NCI-H1915	0.768	0.811	0.709	0.677	0.678	0.305	0.298	0.296	0.294	0.239	1	0.974	0.959	0.911	0.833	0.761	0.742	0.737
NCI-H1793	0.181	0.17	0.14	0.176	0.152	0.333	0.347	0.358	0.427	0.298	0.646	0.729	0.647	0.633	0.424	0.411	0.461	0.386
NCI-H2085	0.439	0.388	0.427	0.461	0.381	0.27	0.217	0.306	0.218	0.262	0.76	0.794	0.735	0.693	1.11	1.1	1.1	0.823
COR-L 105	0.728	0.781	0.826		0.855	0.34	0.34	0.308		0.356	0.404	0.293	0.354	0.32	0.776	0.724	0.842	0.767
SK-LU-1	0.186	0.198	0.194	0.226	0.198	0.162	0.14	0.154	0.168	0.133	0.969	0.841	0.74	0.565	0.796	1.02	0.886	0.405
LXF-289	0.601	0.584	0.659	0.607	0.527	0.227	0.175	0.195	0.181	0.15	0.923	0.885	0.866	0.704	0.903	0.913	0.884	0.836
